In patent US20240197695A1, “COMPOUND FOR PREVENTION OR TREATMENT OF KIDNEY DISEASE” (ONCOCROSS CO.,LTD, priority 2021, published 2024):
Where two headings read alike, the source gives them in different places. Marks after values point to notes of the source that are not given here.

Legend:
Format in all cases: in vivo, mice (C57BL/6)
[1] = system: diabetic nephrosis animal models; experiment: Changes in blood glucose levels (tail vein, blood glucose level meter)
Protocol: (§1) STZ (Sigma-aldrich, S0130, 40 mg/kg b.w., in 0.1 M citrate buffer pH 4.5) was intraperitoneally administered to 9-week-old male mice (C57BL/6) once/1 day for 5 days to perform a first disease induction. After 7 weeks of the first induction, a second induction was performed using the same method as the first induction. For 5 days of an STZ administration period for the first induction, 10% sucrose was administered as drinking water. In addition, after 14 days of the second administration, blood glucose levels were confirmed to confirm the induction rate, and the induced animals were separated into groups. Experimental substances (R)-4-{(R)-1-[7-(3,4,5-trimethoxy-phenyl)-[1,6] naphthyridin-5-yloxy]-ethyl}pyrrolidin-2-one (BI-1002494) and cromolyn (OC-101) were administered orally into the stomach at 10 mL/kg using an administration syringe (sonde) before 16:00 daily for 12 weeks at a frequency of 7 days/week at doses shown in Table 1 below, and dexamethasone was orally administered as a positive control substance.
Before disease induction, excluding week 9 of administration of experimental substances to mice in each group of Example 1 above, after 2 weeks after the first induction (based on a first administration date), and after 6 weeks and 2 weeks of the second induction (based on the first administration date), blood was collected from the tail vein and blood glucose levels were measured using a blood glucose level meter (Accu-Check, Roche), and fasting was performed for 4 hours from 9:30 a.m. to 1:30.

[2] = Body weights of mice in diabetic nephrosis model
Protocol: as §1

[3] = system: diabetic nephrosis animal models; details: for CRE, Mean / GLU, Mean / T-CHO, Mean: after observation period, fasted
Protocol: as §1
After the observation period for mice of each group in Example 1 was terminated, all surviving animals were fasted in the same manner as when measuring blood glucose levels, and then anesthetized by inhaling isoflurane, and blood was collected from the abdominal vena cava through laparotomy. After the blood collection was completed, the veins and arteries were cut under anesthesia and exsanguinated. The collected blood was left at room temperature for 30 minutes or more and then centrifuged at 3,000 rpm for 20 minutes. Thereafter, glucose, Blood urea nitrogen (BUN), and creatinine were analyzed using an automated blood biochemistry analyzer (Hitachi 3100, Hitachi Co. Ltd., Japan). Indoxyl sulfate (a substance that was mainly produced in the intestines to cause renal injury, and a substance that caused end-stage renal failure by advancing renal function damage in patients with renal failure during hemodialysis) was analyzed using LC MS/MS. In addition, blood insulin was analyzed according to a method represented by a commercial Mouse Insulin ELISA KIT (#AKRIN-011T, Sibayagi Co. Ltd., Japan).

[4] = after induction of diabetic renal diseases

COc1cc(-c2cc3ncccc3c(O[C@H](C)[C@H]3CNC(=O)C3)n2)cc(OC)c1OC [BI-1002494, (R)-4-{(R)-1-[7-(3,4,5-trimethoxy-phenyl)-[1,6]naphthyridin-5-yloxy]-ethyl}pyrrolidin-2-one]
Blood glucose level, Mean ([1]; 12.5 mg/kg/day oral, week 0, 4 h fasting, in mg/dL (unit assumed)): 291.1 | Blood glucose level, Mean ([1]; 12.5 mg/kg/day oral, week 2, 4 h fasting, in mg/dL (unit assumed)): 319.5 | Blood glucose level, Mean ([1]; 12.5 mg/kg/day oral, week 4, 4 h fasting): 225.1^# | Blood glucose level, Mean ([1]; 12.5 mg/kg/day oral, week 6, 4 h fasting): 261.8^# | Blood glucose level, Mean ([1]; 12.5 mg/kg/day oral, week 8, 4 h fasting): 270.4^# | Blood glucose level, Mean ([1]; 12.5 mg/kg/day oral, week 10, 4 h fasting): 280.8^# | Blood glucose level, Mean ([1]; 25 mg/kg/day oral, week 0, 4 h fasting, in mg/dL (unit assumed)): 301.2 | Blood glucose level, Mean ([1]; 25 mg/kg/day oral, week 2, 4 h fasting, in mg/dL (unit assumed)): 310.1 | Blood glucose level, Mean ([1]; 25 mg/kg/day oral, week 4, 4 h fasting): 218.6^# | Blood glucose level, Mean ([1]; 25 mg/kg/day oral, week 6, 4 h fasting): 257.8^# | Blood glucose level, Mean ([1]; 25 mg/kg/day oral, week 8, 4 h fasting): 279.1^# | Blood glucose level, Mean ([1]; 25 mg/kg/day oral, week 10, 4 h fasting): 255.9^# | Blood glucose level, Mean ([1]; 50 mg/kg/day oral, week 0, 4 h fasting, in mg/dL (unit assumed)): 303.7 | Blood glucose level, Mean ([1]; 50 mg/kg/day oral, week 2, 4 h fasting, in mg/dL (unit assumed)): 264.5 | Blood glucose level, Mean ([1]; 50 mg/kg/day oral, week 4, 4 h fasting): 201.0^# | Blood glucose level, Mean ([1]; 50 mg/kg/day oral, week 6, 4 h fasting): 199.6^# | Blood glucose level, Mean ([1]; 50 mg/kg/day oral, week 8, 4 h fasting): 200.9^# | Blood glucose level, Mean ([1]; 50 mg/kg/day oral, week 10, 4 h fasting): 187.3^# | Blood glucose levels compared to those of the positive control group ([1]; administered group (12.5, 25, 50 mg/kg)): decreased significantly | Blood glucose levels, summary [1, 4]: decreased in a dose-dependent manner | Body weight compared to the disease control group ([2]; 12.5 mg/kg administered group, after week 5 of administration): statistically significantly increased | Body weight, Mean ([2]; 12.5 mg/kg/day oral, week 0): 24 g | Body weight, Mean ([2]; 12.5 mg/kg/day oral, week 1): 23.7 g | Body weight, Mean ([2]; 12.5 mg/kg/day oral, week 2): 23.8 g | Body weight, Mean ([2]; 12.5 mg/kg/day oral, week 3): 24.1 g | Body weight, Mean ([2]; 12.5 mg/kg/day oral, week 4): 24.3 g | Body weight, Mean ([2]; 12.5 mg/kg/day oral, week 5): 24.2^# | Body weight, Mean ([2]; 12.5 mg/kg/day oral, week 6): 24.4^# | Body weight, Mean ([2]; 12.5 mg/kg/day oral, week 7): 24.3^# | Body weight, Mean ([2]; 12.5 mg/kg/day oral, week 8): 24.2^# | Body weight, Mean ([2]; 12.5 mg/kg/day oral, week 10): 23.8^# | Body weight compared to the disease control group ([2]; 25 mg/kg administered group, after week 8): statistically significantly increased | Body weight, Mean ([2]; 25 mg/kg/day oral, week 0): 23.8 g | Body weight, Mean ([2]; 25 mg/kg/day oral, week 1): 23.5 g | Body weight, Mean ([2]; 25 mg/kg/day oral, week 2): 23.7 g | Body weight, Mean ([2]; 25 mg/kg/day oral, week 3): 23.9 g | Body weight, Mean ([2]; 25 mg/kg/day oral, week 4): 23.9 g | Body weight, Mean ([2]; 25 mg/kg/day oral, week 5): 24 g | Body weight, Mean ([2]; 25 mg/kg/day oral, week 6): 23.9 g | Body weight, Mean ([2]; 25 mg/kg/day oral, week 7): 24 g | Body weight, Mean ([2]; 25 mg/kg/day oral, week 8): 24.0^# | Body weight, Mean ([2]; 25 mg/kg/day oral, week 10): 23.7^# | Body weight compared to the disease control group ([2]; 50 mg/kg administered group, after week 8): statistically significantly increased | Body weight, Mean ([2]; 50 mg/kg/day oral, week 0): 23.9 g | Body weight, Mean ([2]; 50 mg/kg/day oral, week 1): 23.6 g | Body weight, Mean ([2]; 50 mg/kg/day oral, week 2): 23.8 g | Body weight, Mean ([2]; 50 mg/kg/day oral, week 3): 23.8 g | Body weight, Mean ([2]; 50 mg/kg/day oral, week 4): 23.8 g | Body weight, Mean ([2]; 50 mg/kg/day oral, week 5): 23.9 g | Body weight, Mean ([2]; 50 mg/kg/day oral, week 6): 23.9 g | Body weight, Mean ([2]; 50 mg/kg/day oral, week 7): 24 g | Body weight, Mean ([2]; 50 mg/kg/day oral, week 8): 23.9^# | Body weight, Mean ([2]; 50 mg/kg/day oral, week 10): 23.7^# | CRE, Mean ([3]; 12.5 mg/kg/day oral): 0.1 mg/dL | GLU, Mean ([3]; 12.5 mg/kg/day oral): 317.1^# mg/dL | T-CHO, Mean ([3]; 12.5 mg/kg/day oral): 141.6 mg/dL | CRE, Mean ([3]; 25 mg/kg/day oral): 0.1 mg/dL | GLU, Mean ([3]; 25 mg/kg/day oral): 280.0^# mg/dL | T-CHO, Mean ([3]; 25 mg/kg/day oral): 125.0 mg/dL | CRE, Mean ([3]; 50 mg/kg/day oral): 0.1 mg/dL | GLU, Mean ([3]; 50 mg/kg/day oral): 213.6^# mg/dL | T-CHO, Mean ([3]; 50 mg/kg/day oral): 138.7 mg/dL | Glucose, summary [3, 4]: decreased in a dose-dependent manner | GLU compared with disease control group ([3]; all administered groups (12.5, 25, 50 mg/kg)): statistically significantly reduced, and a clear dose dependence was observed
